Results from PMC5053523, “In Vitro Antibacterial Activity of Rhodanine Derivatives against Pathogenic Clinical Isolates” (PLoS ONE, 2016).
Converted amounts (≈) assume the structure as drawn. Read-outs that look alike come from different tables or passages of the source.

Tests used:
Format in all cases: cell-based
[1] = system: Acinetobacter baumannii; experiment: MIC with/without sub-MIC colistin, Acinetobacter baumannii
Summary of the method: (§1)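 Read-out is the MIC, determined with sub-inhibitory colistin or polymixin B nonapeptide co-applied to permeabilize the outer membrane of Gram-negative bacteria.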

[2] = system: Mycobacterium smegmatis; experiment: Broth microdilution MIC/MBC, Mycobacterium smegmatis; settings: Mycolicibacterium smegmatis, ATCC14468, M. Smegmatis ATCC 14468
[3] = system: Acinetobacter baumannii; experiment: Broth microdilution MIC, Acinetobacter baumannii
[4] = system: vancomycin resistant enterococci (VRE) E. faecium; experiment: Broth microdilution MIC/MBC, VRE E. faecium; settings: for MIC: read-out: MIC
[5] = system: methicillin-resistant Staphylococcus aureus (MRSA); experiment: Broth microdilution MIC/MBC, MRSA
[6] = system: Vancomycin Resistant Staphylococcus aureus (VRSA); experiment: Broth microdilution MIC/MBC, VRSA; settings: for MBC / MIC: VRSA
[7] = system: vancomycin resistant enterococci (VRE) E. faecalis; experiment: Broth microdilution MIC/MBC, VRE E. faecalis; settings: for MIC: read-out: MIC
[8] = system: B. cereus; experiment: Broth microdilution MIC/MBC, B. cereus; settings: Bacillus cereus; for MBC: read-out: MBC; for MIC: read-out: MIC
Description: The broth microdilution technique was used, followed by subculturing on agar plates that were rhodanine—free.

[9] = system: Escherichia coli Δ acrAB; experiment: MIC against E. coli 1411 and AcrAB efflux pump deficient E. coli SM1411Δ acrAB
Summary of the method: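 Gram-negative MICs were determined for rhodanines alongside control antibiotics, each combined with sub-inhibitory colistin or PMBN. Further testing used the efflux-deficient E. coli SM1411ΔacrAB, missing the AcrAB multidrug pump.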

[10] = system: Klebsiella pneumoniae; experiment: MIC with/without sub-MIC colistin, Klebsiella pneumoniae
Summary of the method: as §1

[11] = E. faecium HM 968 Strain ERV102
[12] = E. faecium NR31914 Strain E0120
[13] = E. faecium Patient #1–1 NR-31903
[14] = E. faecalis NR31972 Strain SF 28073
[15] = NRS201, B. cereus NRS 201 NR-2488

O=C(O)[C@@H](Cc1ccccc1)N1C(=O)/C(=C/c2cccc(Oc3ccc(F)cc3)c2)SC1=S [Rh 4]
MIC ([1]; Acinetobacter baumannii ATCC BAA747, colistin (+) […], read-out: MIC): >64 µM | MIC ([1]; Acinetobacter baumannii ATCC BAA19606, colistin (+) […], read-out: MIC): >64 µM | MIC ([1]; Acinetobacter baumannii, ATCCBAA747): > 128 µM | MIC ([1]; Acinetobacter baumannii, ATCCBAA19606): > 128 µM | MBC ([2]; read-out: MBC): > 64 µM | MIC ([2]; read-out: MIC): 32 µM (≈ 15.3 µg/mL) | MIC ([3]; ATCC13345): > 128 µM | MIC ([3]; ATCC17786): > 128 µM | MBC ([4]; E. faecium E417 HM-965): > 64 µM | MIC ([4]; E. faecium E417 HM-965): 16 µM (≈ 7.67 µg/mL) | MBC ([4]; E. faecium E1071 NR-28978): 64 µM (≈ 30.7 µg/mL) | MIC ([4]; E. faecium E1071 NR-28978): 32 µM (≈ 15.3 µg/mL) | MBC [4, 11]: 64 µM (≈ 30.7 µg/mL) | MIC [4, 11]: 32 µM (≈ 15.3 µg/mL) | MBC [4, 12]: 64 µM (≈ 30.7 µg/mL) | MIC [4, 12]: 32 µM (≈ 15.3 µg/mL) | MBC [4, 13]: 64 µM (≈ 30.7 µg/mL) | MIC [4, 13]: 16 µM (≈ 7.67 µg/mL) | MIC50 ([5]; 11 MRSA strains): 16 µM (≈ 7.67 µg/mL) | MIC90 ([5]; 11 MRSA strains): 32 µM (≈ 15.3 µg/mL) | MBC ([5]; MRSA NRS 1): 32 µM (≈ 15.3 µg/mL) | MIC ([5]; MRSA NRS 1): 16 µM (≈ 7.67 µg/mL) | MBC ([5]; MRSA NRS 19): 32 µM (≈ 15.3 µg/mL) | MIC ([5]; MRSA NRS 19): 16 µM (≈ 7.67 µg/mL) | MBC ([5]; MRSA NRS 37): 32 µM (≈ 15.3 µg/mL) | MIC ([5]; MRSA NRS 37): 32 µM (≈ 15.3 µg/mL) | MBC ([5]; MRSA NRS 107): 32 µM (≈ 15.3 µg/mL) | MIC ([5]; MRSA NRS 107): 16 µM (≈ 7.67 µg/mL) | MBC ([5]; MRSA NRS 119): 32 µM (≈ 15.3 µg/mL) | MIC ([5]; MRSA NRS 119): 16 µM (≈ 7.67 µg/mL) | MBC ([5]; MRSA NRS 382): 16 µM (≈ 7.67 µg/mL) | MIC ([5]; MRSA NRS 382): 16 µM (≈ 7.67 µg/mL) | MBC ([5]; MRSA NRS 383): 32 µM (≈ 15.3 µg/mL) | MIC ([5]; MRSA NRS 383): 32 µM (≈ 15.3 µg/mL) | MBC ([5]; MRSA NRS 384): 64 µM (≈ 30.7 µg/mL) | MIC ([5]; MRSA NRS 384): 16 µM (≈ 7.67 µg/mL) | MBC ([5]; MRSA NRS 385): 32 µM (≈ 15.3 µg/mL) | MIC ([5]; MRSA NRS 385): 16 µM (≈ 7.67 µg/mL) | MBC ([5]; MRSA NRS 386): > 64 µM | MIC ([5]; MRSA NRS 386): 16 µM (≈ 7.67 µg/mL) | MBC ([5]; MRSA NRS 387): 64 µM (≈ 30.7 µg/mL) | MIC ([5]; MRSA NRS 387): 16 µM (≈ 7.67 µg/mL) | MIC50 ([6]; 15 VRSA strains, read-out: MIC 50): 16 µM (≈ 7.67 µg/mL) | MIC90 ([6]; 15 VRSA strains, read-out: MIC 90): 16 µM (≈ 7.67 µg/mL) | MBC ([6]; VRSA 1, read-out: MBC): 64 µM (≈ 30.7 µg/mL) | MIC ([6]; VRSA 1, read-out: MIC): 16 µM (≈ 7.67 µg/mL) | MBC ([6]; VRSA 2, read-out: MBC): 16 µM (≈ 7.67 µg/mL) | MIC ([6]; VRSA 2, read-out: MIC): 16 µM (≈ 7.67 µg/mL) | MBC ([6]; VRSA 3a, read-out: MBC): 32 µM (≈ 15.3 µg/mL) | MIC ([6]; VRSA 3a, read-out: MIC): 16 µM (≈ 7.67 µg/mL) | MBC ([6]; VRSA 3b, read-out: MBC): 16 µM (≈ 7.67 µg/mL) | MIC ([6]; VRSA 3b, read-out: MIC): 16 µM (≈ 7.67 µg/mL) | MBC ([6]; VRSA 4, read-out: MBC): 64 µM (≈ 30.7 µg/mL) | MIC ([6]; VRSA 4, read-out: MIC): 16 µM (≈ 7.67 µg/mL) | MBC ([6]; VRSA 5, read-out: MBC): 32 µM (≈ 15.3 µg/mL) | MIC ([6]; VRSA 5, read-out: MIC): 16 µM (≈ 7.67 µg/mL) | MBC ([6]; VRSA 6, read-out: MBC): 32 µM (≈ 15.3 µg/mL) | MIC ([6]; VRSA 6, read-out: MIC): 16 µM (≈ 7.67 µg/mL) | MBC ([6]; VRSA 7, read-out: MBC): 32 µM (≈ 15.3 µg/mL) | MIC ([6]; VRSA 7, read-out: MIC): 16 µM (≈ 7.67 µg/mL) | MBC ([6]; VRSA 8, read-out: MBC): 32 µM (≈ 15.3 µg/mL) | MIC ([6]; VRSA 8, read-out: MIC): 16 µM (≈ 7.67 µg/mL) | MBC ([6]; VRSA 9, read-out: MBC): 32 µM (≈ 15.3 µg/mL) | MIC ([6]; VRSA 9, read-out: MIC): 32 µM (≈ 15.3 µg/mL) | MBC ([6]; VRSA 10, read-out: MBC): 32 µM (≈ 15.3 µg/mL) | MIC ([6]; VRSA 10, read-out: MIC): 16 µM (≈ 7.67 µg/mL) | MBC ([6]; VRSA 11a, read-out: MBC): 64 µM (≈ 30.7 µg/mL) | MIC ([6]; VRSA 11a, read-out: MIC): 16 µM (≈ 7.67 µg/mL) | MBC ([6]; VRSA 11b, read-out: MBC): 64 µM (≈ 30.7 µg/mL) | MIC ([6]; VRSA 11b, read-out: MIC): 16 µM (≈ 7.67 µg/mL) | MBC ([6]; VRSA 12, read-out: MBC): 64 µM (≈ 30.7 µg/mL) | MIC ([6]; VRSA 12, read-out: MIC): 16 µM (≈ 7.67 µg/mL) | MBC ([6]; VRSA 13, read-out: MBC): 64 µM (≈ 30.7 µg/mL) | MIC ([6]; VRSA 13, read-out: MIC): 16 µM (≈ 7.67 µg/mL) | MBC ([7]; E. faecalis ERV103 HM-934): 32 µM (≈ 15.3 µg/mL) | MIC ([7]; E. faecalis ERV103 HM-934): 32 µM (≈ 15.3 µg/mL) | MBC [7, 14]: 32 µM (≈ 15.3 µg/mL) | MIC [7, 14]: 32 µM (≈ 15.3 µg/mL) | MBC ([7]; E. faecalis R712 HM-335): 32 µM (≈ 15.3 µg/mL) | MIC ([7]; E. faecalis R712 HM-335): 16 µM (≈ 7.67 µg/mL) | MBC ([7]; E. faecalis S613 HM-334): 32 µM (≈ 15.3 µg/mL) | MIC ([7]; E. faecalis S613 HM-334): 32 µM (≈ 15.3 µg/mL) | MBC ([7]; E. faecalis TX0104 HM-201): 32 µM (≈ 15.3 µg/mL) | MIC ([7]; E. faecalis TX0104 HM-201): 32 µM (≈ 15.3 µg/mL) | MBC ([8]; B. cereus BAG1O-2 NR-28582): 8 µM (≈ 3.84 µg/mL) | MIC ([8]; B. cereus BAG1O-2 NR-28582): 8 µM (≈ 3.84 µg/mL) | MBC ([8]; B. cereus BAG1X1-1 NR-28575): 8 µM (≈ 3.84 µg/mL) | MIC ([8]; B. cereus BAG1X1-1 NR-28575): 8 µM (≈ 3.84 µg/mL) | MBC ([8]; B. cereus BAG1X2-1 NR-28578): 8 µM (≈ 3.84 µg/mL) | MIC ([8]; B. cereus BAG1X2-1 NR-28578): 8 µM (≈ 3.84 µg/mL) | MBC ([8]; B. cereus G9241 NR-9564): 16 µM (≈ 7.67 µg/mL) | MIC ([8]; B. cereus G9241 NR-9564): 16 µM (≈ 7.67 µg/mL) | MBC ([8]; B. cereus VD014 NR-22141): 8 µM (≈ 3.84 µg/mL) | MIC ([8]; B. cereus VD014 NR-22141): 8 µM (≈ 3.84 µg/mL) | MBC ([8]; B. cereus VD115 NR-22148): 8 µM (≈ 3.84 µg/mL) | MIC ([8]; B. cereus VD115 NR-22148): 8 µM (≈ 3.84 µg/mL) | MBC ([8]; B. cereus VD148 NR-22150): 8 µM (≈ 3.84 µg/mL) | MIC ([8]; B. cereus VD148 NR-22150): 8 µM (≈ 3.84 µg/mL) | MBC [8, 15]: > 64 µM | MIC [8, 15]: 8 µM (≈ 3.84 µg/mL) | MIC ([9]; E.coli 1411): > 64 µM | MIC ([9]; E.coli 1411 SM (Δ acrAB, AcrAB efflux pump deficient)): > 64 µM | MIC ([10]; Klebsiella pneumoniae ATCC BAA 2146, colistin (+) […]): >64 µM | MIC ([10]; Klebsiella pneumoniae, BAA2146): > 128 µM
